Where only a bound is given, the exact number is not on record here.

Experiment [1] concerns the target human CB1 receptor (hCB1) (Homo sapiens, UniProt P21554). Nature of the experiment: cAMP assay (LANCE TR-FRET) in CHO-K1 cells expressing hCB1. Type of experiment: cell-based. Particulars: activity on hCB1 represents inverse agonism; for Emax: CHO-K1, percent of range defined by CP55,940 (1 μM = 100%), read-out: hCB1 % Max Range; for EC50: CHO-K1 cells stably expressing hCB1, intracellular cAMP, NKH-477 prestimulated. As to the method:
(§1) The ability of compounds to act as agonists or inverse agonists at human CB2 and CB1 receptors (hCB2, hCB1, respectively) was determined by measuring changes in intracellular cAMP levels. Chinese Hamster Ovary (CHO-K1) cell lines stably expressing hCB2 (Genebank: X74328) or hCB1 (Genebank: X54937) were purchased from Euroscreen (Gosselies, Belgium).
(§2) Cell lines were grown in suspension in EX-CELL 302 CHO Serum-free medium (Sigma, catalog #14324C) supplemented with 1% Fetal Bovine Serum, glutamine and with or without non-essential amino-acids under 0.4 mg/mL G418 selection.
(§3) Receptor mediated responses were determined by measuring changes in intracellular cAMP using LANCE cAMP detection kit (catalog #AD0264, PerkinElmer, Wellesley, Mass.) based on time-resolved fluorescence resonance energy transfer (TR-FRET). Changes in cAMP were determined in cells pre-incubated with IBMX (isobutyl methylxanthine) and prestimulated with NKH-477 (a water soluble forskolin derivative, catalog #1603, Tocris, Ellisville, Mo.) to increase basal cAMP levels as detailed below.
(§4) On the day of the experiment, cells were spun at low speed for 5 min at room temperature. The supernatant was removed and cells were resuspended in stimulation buffer (Hanks Buffered Salt Solution/5 mM HEPES, containing 0.5 mM IBMX (catalog #17018, Sigma) and 0.02% BSA (PerkinElmer, catalog #CR84-100)). Cell clumps were removed by filtering through cell strainer 40 μm (BD Falcon, Discovery Labware, Bedford, Mass.) and diluted to 2×10^5 cells/mL. Antibody supplied with the LANCE cAMP immunoassay kit was then added according to the manufacturer's instructions. An aliquot of cells was taken for un-induced controls. To the remaining cells was added NKH-477 (a water soluble forskolin derivative, Tocris catalog #1603) to a final concentration of 2-8 μM. Cells were then incubated for either 25 or 30 min at room temperature prior to adding to Proxiplates containing test compounds (final DMSO concentration was less than 0.5%) with a Multidrop bulk dispenser, followed by a sixty minute incubation at room temperature. The response was stopped by addition of the detection mix supplied with the LANCE kit.
(§5) The reagents were allowed to equilibrate for three hours prior to reading on an Envision multi-mode detector (PerkinElmer). TR-FRET was measured using a 330-380 nm excitation filter, 615 and 665 nm emission filters, dichroic mirror 380 nm and Z=1 mm.
(§6) Cyclic AMP concentrations in each well were back-calculated from a cAMP standard curve run concurrently during each assay. Each plate contained 16 wells of forskolin stimulated cells and 16 wells of forskolin plus CP55,940-treated. CP55,940-treated cells were treated with CP55,940 (Tocris catalog #0949) at 1 μM and the maximal response was used as the full range (100%) standard. WIN55,212 (Tocris catalog #1038) was used as an internal standard. Concentrations of cAMP were expressed as a percent of the difference of these two groups of wells. Concentration-response data including EC50 (the concentration of compound producing 50% of the maximal response) and intrinsic activity (the percent maximal activation compared to full activation by CP55,940) were determined using a four-parameter non-linear regression algorithm (Xlfit equation 251, IDBS).
For orientation: Changes in cAMP serve as a functional read-out for many G protein-coupled receptors.

Experiment [2] has as its target human CB2 receptor (hCB2) (Homo sapiens, UniProt P34972). Nature of the experiment: cAMP assay (LANCE TR-FRET) in CHO-K1 cells expressing hCB2. Type of experiment: cell-based. Particulars: for Emax: CHO-K1, intrinsic activity: percent maximal activation compared to full activation by CP55,940 (1 μM = 100%), read-out: hCB2 % Max Range; for EC50: CHO-K1 cells stably expressing hCB2, intracellular cAMP, NKH-477 prestimulated, average of at least three replicates. As to the method: as §1, §2, §3, §4, §5
as §6, with “IDBS). Assays were performed with at least three replicates per compound and averaged results for the several compounds of the invention are shown in Table I.” for “IDBS).”

human CB2 receptor (hCB2), sequence (P34972 whole entry): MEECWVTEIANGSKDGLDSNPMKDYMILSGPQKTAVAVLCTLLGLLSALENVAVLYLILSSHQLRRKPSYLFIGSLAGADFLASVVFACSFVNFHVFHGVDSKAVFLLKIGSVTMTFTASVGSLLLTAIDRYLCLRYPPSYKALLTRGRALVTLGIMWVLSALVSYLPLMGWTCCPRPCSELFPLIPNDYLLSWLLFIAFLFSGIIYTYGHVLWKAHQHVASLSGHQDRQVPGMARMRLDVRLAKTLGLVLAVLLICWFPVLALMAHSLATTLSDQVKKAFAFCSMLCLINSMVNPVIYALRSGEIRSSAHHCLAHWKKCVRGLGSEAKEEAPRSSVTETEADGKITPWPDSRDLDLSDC
human CB1 receptor (hCB1), sequence (P21554 whole entry): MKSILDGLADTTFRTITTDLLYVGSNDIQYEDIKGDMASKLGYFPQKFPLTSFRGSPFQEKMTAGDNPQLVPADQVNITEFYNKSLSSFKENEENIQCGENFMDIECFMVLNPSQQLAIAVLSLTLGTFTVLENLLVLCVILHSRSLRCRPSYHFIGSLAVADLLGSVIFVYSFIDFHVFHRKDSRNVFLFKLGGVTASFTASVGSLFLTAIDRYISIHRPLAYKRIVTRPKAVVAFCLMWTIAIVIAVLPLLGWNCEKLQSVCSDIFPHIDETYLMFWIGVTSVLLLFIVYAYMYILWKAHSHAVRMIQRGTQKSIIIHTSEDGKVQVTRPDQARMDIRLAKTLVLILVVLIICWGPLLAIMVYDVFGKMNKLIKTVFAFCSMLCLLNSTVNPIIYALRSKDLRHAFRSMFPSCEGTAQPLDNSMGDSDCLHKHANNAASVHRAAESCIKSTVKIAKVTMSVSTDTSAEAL

Usually EC50 stands for the concentration needed to bring the measured effect to its halfway point. High values mean weaker potency, low ones greater potency. For the compound `Cc1ccc(C2Nc3ccc(NC(=O)C4CC4)cc3C3C4CCC(C4)C23)cc1` (stereo not drawn) [(22), Bridged N-(6-p-tolyl-5,6,6a,7,8,9,10,10a-octahydrophenanthridin-2-yl)cyclopropanecarboxamide], the Emax in experiment [1] was 115%; in experiment [2], 53%. Besides, the EC50 in experiment [1] was determined as 1.81 µM; in experiment [2], 0.014 µM.
As for `CC(=O)Nc1ccc2c(c1)C1C3CCC(C3)C1C(c1ccccc1)N2` (stereo not drawn) [(23), Bridged N-(6-phenyl-5,6,6a,7,8,9,10,10a-octahydrophenanthridin-2-yl)acetamide], in experiment [1], the Emax amounted to 88% and the response was half-maximal at 2.61 µM (EC50). Moreover, in experiment [2], the Emax was determined as 82% and it took 0.043 µM to reach a half-maximal effect (EC50).
With `CC(=O)Nc1ccc2c(c1)C1C3CCC(C3)C1C(c1c(Cl)cccc1Cl)N2` (stereo not drawn) [(24), Bridged N-(6-(2,6-dichlorophenyl)-5,6,6a,7,8,9,10,10a-octahydrophenanthridin-2-yl)acetamide], in experiment [1], the Emax was < 40% and the 50% effective concentration (EC50) is > 10 µM. Besides, in experiment [2], the Emax was < 40% and the EC50 was > 10 µM.
On to `CCCNC(=O)Nc1ccc2c(c1)C1C3CCC(C3)C1C(c1c(Cl)cccc1Cl)N2` (stereo not drawn) [(26), Bridged 1-(6-(2,6-dichlorophenyl)-5,6,6a,7,8,9,10,10a-octahydrophenanthridin-2-yl)-3-propylurea], for which, in experiment [1], the Emax was < 40% and the EC50 is > 10 µM. In experiment [2], the Emax is < 40% and the EC50 was > 10 µM.
On to `CCCNC(=S)Nc1ccc2c(c1)C1C3CCC(C3)C1C(c1c(Cl)cccc1Cl)N2` (stereo not drawn) [(27), Bridged 1-(6-(2,6-dichlorophenyl)-5,6,6a,7,8,9,10,10a-octahydrophenanthridin-2-yl)-3-propylthiourea], for which, in experiment [1], the Emax was < 40% and the concentration giving a half-maximal response (EC50) is > 10 µM. In experiment [2], the Emax is < 40% and the EC50 is > 10 µM.
With `O=C(NCc1ccccc1)c1ccc2c(c1)C1C3CCC(C3)C1C(c1ccccc1)N2` (stereo not drawn) [(28), Bridged N-benzyl-6-phenyl-5,6,6a,7,8,9,10,10a-octahydrophenanthridine-2-carboxamide], in experiment [1], the Emax is < 40% and the EC50 is > 10 µM. For the same compound, in experiment [2], the Emax was 84.4% and the midpoint of the response, the EC50, lay at 0.373 µM.
The matching figures for `CCCCC(=O)Nc1ccc2c(c1)C1C3CCC(C3)C1C(c1ccc(C)cc1)N2` (stereo not drawn) [(29), Bridged N-(6-p-tolyl-5,6,6a,7,8,9,10,10a-octahydrophenanthridin-2-yl)pentanamide]: < 40%, > 10 µM, 54.8% and 0.0667 µM.
The like results for `CN(C)S(=O)(=O)c1ccc2c(c1)C1C3CCC(C3)C1C(c1cncnc1)N2` (stereo not drawn) [(30), Bridged N,N-dimethyl-6-(pyrimidin-5-yl)-5,6,6a,7,8,9,10,10a-octahydrophenanthridine-2-sulfonamide] were, in that order, < 40%, > 10 µM, 99.3% and 0.0728 µM.
The matching figures for `CN(C)S(=O)(=O)c1ccc2c(c1)C1C3CCC(C3)C1C(c1nccs1)N2` (stereo not drawn) [(31), Bridged N,N-dimethyl-6-(thiazol-2-yl)-5,6,6a,7,8,9,10,10a-octahydrophenanthridine-2-sulfonamide]: < 40%, > 10 µM, 89.2% and 0.103 µM.
`CC(=O)Nc1ccc(C2Nc3ccc(S(=O)(=O)N(C)C)cc3C3C4CCC(C4)C23)cc1` (stereo not drawn) [(32), Bridged N-(4-(2-(N,N-dimethylsulfamoyl)-5,6,6a,7,8,9,10,10a-octahydrophenanthridin-6-yl)phenyl)acetamide]: in experiment [1], the Emax was < 40% and the EC50 was > 10 µM. Also, in experiment [2], the Emax was 81.3% and it took 0.225 µM to reach a half-maximal effect (EC50).
The like results for `CN(C)S(=O)(=O)c1ccc2c(c1)C1C3CCC(C3)C1C(c1ccnn1C)N2` (stereo not drawn) [(33), Bridged N,N-dimethyl-6-(1-methyl-1H-pyrazol-5-yl)-5,6,6a,7,8,9,10,10a-octahydrophenanthridine-2-sulfonamide] were, in that order, < 40%, > 10 µM, 94.9% and 0.0075 µM.
The like results for `O=S(=O)(c1ccc2c(c1)C1C3CCC(C3)C1C(c1cncnc1)N2)N1CCOCC1` (stereo not drawn) [(35), Bridged 4-(6-(pyrimidin-5-yl)-5,6,6a,7,8,9,10,10a-octahydrophenanthridin-2-ylsulfonyl)morpholine] were, in that order, < 40%, > 10 µM, 66.6% and 1.3 µM.
The like results for `O=S(=O)(c1ccc2c(c1)C1C3CCC(C3)C1C(c1nccs1)N2)N1CCOCC1` (stereo not drawn) [(36), Bridged 4-(6-(thiazol-2-yl)-5,6,6a,7,8,9,10,10a-octahydrophenanthridin-2-ylsulfonyl)morpholine] were, in that order, < 40%, > 10 µM, 57.1% and 4.12 µM.
As to `Cn1nccc1C1Nc2ccc(S(=O)(=O)N3CCOCC3)cc2C2C3CCC(C3)C12` (stereo not drawn) [(37), Bridged 4-(6-(1-methyl-1H-pyrazol-5-yl)-5,6,6a,7,8,9,10,10a-octahydrophenanthridin-2-ylsulfonyl)morpholine], the Emax in experiment [1] was < 40%; in experiment [2], 92.6%. The results for the concentration for a half-maximal effect (EC50) in experiment [1] and in experiment [2] were > 10 µM and 0.0017 µM, respectively.
The matching figures for `CN(C1CCCCC1)S(=O)(=O)c1ccc2c(c1)C1C3CCC(C3)C1C(c1ccccc1)N2` (stereo not drawn) [(38), Bridged N-cyclohexyl-N-methyl-6-phenyl-5,6,6a,7,8,9,10,10a-octahydrophenanthridine-2-sulfonamide]: < 40%, 79.5%, > 10 µM and 0.0085 µM.
For the compound `NS(=O)(=O)c1ccc2c(c1)C1C3CCC(C3)C1C(c1ccccc1)N2` (stereo not drawn) [(39), Bridged 6-phenyl-5,6,6a,7,8,9, 10,10a-octahydrophenanthridine-2-sulfonamide], in experiment [1], the Emax was 172% and a half-maximal effect (EC50) was put at 3.04 µM. In addition, in experiment [2], the Emax worked out at 83.3% and a half-maximal response (EC50) required 0.0177 µM.
For `Cn1nccc1C1Nc2ccc(S(N)(=O)=O)cc2C2C3CCC(C3)C12` (stereo not drawn) [(40), Bridged 6-(1-methyl-1H-pyrazol-5-yl)-5,6,6a,7,8,9,10,10a-octahydrophenanthridine-2-sulfonamide], the Emax in experiment [1] is < 40%; in experiment [2], 82.7%. For the same compound, the EC50 in experiment [1] was > 10 µM; in experiment [2], 2 µM.
The like results for `O=S(=O)(c1ccc2c(c1)C1C3CCC(C3)C1C(c1ccccc1)N2)N1CCCC1` (stereo not drawn) [(41), Bridged 6-phenyl-2-(pyrrolidin-1-ylsulfonyl)-5,6,6a,7,8,9,10,10a-octahydrophenanthridine] were, in that order, < 40%, 104%, > 10 µM and 0.00081 µM.

(Values after patent publication US20080214537A1, “BRIDGED PHENANTHRIDINES” (CARA THERAPEUTICS, INC., priority 2007, published 2008).)
